Each block holds one molecule with its values, some of them ahead of it. The source made the active and inactive calls. The rule behind the calls is not given here.
Columns and labels:
[1] = molecular target: T1, Amine oxidase [flavin-containing] A (Homo sapiens, UniProt P21397)
T1 sequence (P21397 whole entry): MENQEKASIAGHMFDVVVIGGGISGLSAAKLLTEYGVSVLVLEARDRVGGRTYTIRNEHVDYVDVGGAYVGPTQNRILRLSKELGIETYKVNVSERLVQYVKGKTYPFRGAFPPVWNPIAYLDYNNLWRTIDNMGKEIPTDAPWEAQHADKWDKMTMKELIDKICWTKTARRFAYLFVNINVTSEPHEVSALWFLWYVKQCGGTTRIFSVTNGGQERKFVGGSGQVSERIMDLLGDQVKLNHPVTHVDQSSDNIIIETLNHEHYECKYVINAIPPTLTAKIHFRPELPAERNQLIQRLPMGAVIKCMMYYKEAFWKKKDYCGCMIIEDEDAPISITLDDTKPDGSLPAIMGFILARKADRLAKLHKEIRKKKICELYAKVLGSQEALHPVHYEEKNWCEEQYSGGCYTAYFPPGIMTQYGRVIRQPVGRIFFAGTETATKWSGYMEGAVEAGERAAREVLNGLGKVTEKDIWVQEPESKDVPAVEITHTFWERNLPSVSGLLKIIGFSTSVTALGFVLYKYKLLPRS
Description: Inhibition of MAOA (unknown origin) using beetle luciferin as substrate by MAO-Glo assay

[2] = molecular target: T2, Amine oxidase [flavin-containing] B (Homo sapiens, UniProt P27338)
T2 sequence (P27338 whole entry): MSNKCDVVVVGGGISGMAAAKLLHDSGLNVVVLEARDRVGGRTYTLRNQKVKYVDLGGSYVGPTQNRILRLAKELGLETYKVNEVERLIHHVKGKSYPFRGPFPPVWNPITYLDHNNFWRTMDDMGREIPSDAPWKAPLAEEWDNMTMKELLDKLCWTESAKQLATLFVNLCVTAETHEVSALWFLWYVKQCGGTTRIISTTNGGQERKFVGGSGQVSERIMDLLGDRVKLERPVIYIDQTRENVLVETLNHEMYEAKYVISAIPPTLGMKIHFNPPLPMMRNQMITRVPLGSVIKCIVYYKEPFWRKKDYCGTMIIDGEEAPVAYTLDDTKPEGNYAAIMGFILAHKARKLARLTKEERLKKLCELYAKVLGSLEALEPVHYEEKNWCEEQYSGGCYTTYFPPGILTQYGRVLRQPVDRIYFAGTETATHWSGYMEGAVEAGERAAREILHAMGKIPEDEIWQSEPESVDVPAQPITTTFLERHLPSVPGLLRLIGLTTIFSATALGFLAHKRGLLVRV
Description: Inhibition of MAOB (unknown origin) using beetle luciferin as substrate by MAO-Glo assay

MGC-803 [3] = assay: Induction of mitochondrial membrane potential loss in human MGC803 cells incubated for 48 hrs by JC1 staining based flow cytometry; assay type: functional, cell-based
MGC-803 [4] = assay: Induction of apoptosis in human MGC803 cells assessed as viable cells level at 2.5 uM incubated for 48 hrs by Annexin-V-FITC/propidium iodide staining based flow cytometry (reference value: 92.3%); assay type: functional
MGC-803 [5] = assay: Induction of apoptosis in human MGC803 cells assessed as early apoptotic cells level at 2.5 uM incubated for 48 hrs by Annexin-V-FITC/propidium iodide staining based flow cytometry (reference value: 7.35%); assay type: functional
MCF7 = assay: cells; assay type: functional, cell-based; details: Homo sapiens, MCF7, 72 h
Description: Antiproliferative activity against human MCF7 cells incubated for 72 hrs by MTT assay

MGC-803 [6] = assay: cells; assay type: functional, cell-based; details: Homo sapiens, MGC-803, 72 h
Description: Antiproliferative activity against human MGC803 cells incubated for 72 hrs by MTT assay

MGC-803 [7] = assay: Induction of apoptosis in human MGC803 cells assessed as necrotic cells level at 2.5 uM incubated for 48 hrs by Annexin-V-FITC/propidium iodide staining based flow cytometry (reference value: 0.242%); assay type: functional
MGC-803 [8] = assay: Induction of apoptosis in human MGC803 cells assessed as viable cells level at 7.5 uM incubated for 48 hrs by Annexin-V-FITC/propidium iodide staining based flow cytometry (reference value: 92.3%); assay type: functional
MGC-803 [9] = assay: Induction of apoptosis in human MGC803 cells assessed as late apoptotic cells level at 5 uM incubated for 48 hrs by Annexin-V-FITC/propidium iodide staining based flow cytometry (reference value: 0.121%); assay type: functional
[10] = molecular target: T3, Lysine-specific histone demethylase 1A (Homo sapiens, UniProt O60341); assay: Inhibition of LSD1 in human MGC803 cells assessed as increase in cellular H3K4me2 levels incubated for 24 hrs by Western blot; assay type: cell-based
MGC-803 [11] = assay: Induction of apoptosis in human MGC803 cells assessed as late apoptotic cells level at 7.5 uM incubated for 48 hrs by Annexin-V-FITC/propidium iodide staining based flow cytometry (reference value: 0.121%); assay type: functional
MGC-803 [12] = assay: Induction of apoptosis in human MGC803 cells assessed as viable cells level at 7.5 uM incubated for 24 hrs by Annexin-V-FITC/propidium iodide staining based flow cytometry (reference value: 94.6%); assay type: functional
MGC-803 [13] = assay: Induction of apoptosis in human MGC803 cells assessed as early apoptotic cells level at 5 uM incubated for 48 hrs by Annexin-V-FITC/propidium iodide staining based flow cytometry (reference value: 7.35%); assay type: functional
MGC-803 [14] = assay: Induction of apoptosis in human MGC803 cells assessed as necrotic cells level at 5 uM incubated for 48 hrs by Annexin-V-FITC/propidium iodide staining based flow cytometry (reference value: 0.242%); assay type: functional
MGC-803 [15] = assay: Induction of apoptosis in human MGC803 cells assessed as late apoptotic cells level at 2.5 uM incubated for 48 hrs by Annexin-V-FITC/propidium iodide staining based flow cytometry (reference value: 0.121%); assay type: functional
[16] = molecular target: T3, Lysine-specific histone demethylase 1A; assay: Inhibition of LSD1 in human MGC803 cells assessed as increase in cellular H3K4me3 levels at 2 uM incubated for 24 hrs by Western blot; assay type: cell-based
[17] = molecular target: Histone deacetylase (Homo sapiens) (UniProt Q13547+O15379+Q9UBN7+Q92769+Q9UQL6+Q8WUI4+Q9BY41+Q96DB2+P56524+Q9UKV0+Q969S8); assay: Inhibition of HDAC in human MGC803 cells assessed as increase in cellular histone H3 acetylation levels incubated for 24 hrs by Western blot; assay type: cell-based
[18] = molecular target: T3, Lysine-specific histone demethylase 1A; assay: Inhibition of LSD1 in human MGC803 cells assessed as increase in cellular H3K9me2 levels incubated for 24 hrs by Western blot; assay type: cell-based
MGC-803 [19] = assay: Induction of mitochondrial membrane potential loss in human MGC803 cells assessed as FL2 red fluorescence level at 7.5 uM incubated for 48 hrs by JC1 staining based flow cytometry (reference value: 5.47%); assay type: functional
MGC-803 [20] = assay: Induction of apoptosis in human MGC803 cells assessed as necrotic cells level at 5 uM incubated for 24 hrs by Annexin-V-FITC/propidium iodide staining based flow cytometry (reference value: 0.596%); assay type: functional
A549 = assay: cells; assay type: functional, cell-based; details: Homo sapiens, A549, 72 h
Description: Antiproliferative activity against human A549 cells incubated for 72 hrs by MTT assay

[21] = molecular target: T3, Lysine-specific histone demethylase 1A
Histone deacetylase 5 = Histone deacetylase 5 (Homo sapiens, UniProt Q9UQL6); assay: Inhibition of C-terminal His-tagged human HDAC5 (656-1122 residues) expressed in baculovirus expression system using Ac-peptide substrate incubated for 15 mins by fluorescence based assay
Chain of Histone deacetylase 5 (Q9UQL6 whole entry, the tested form may be a part): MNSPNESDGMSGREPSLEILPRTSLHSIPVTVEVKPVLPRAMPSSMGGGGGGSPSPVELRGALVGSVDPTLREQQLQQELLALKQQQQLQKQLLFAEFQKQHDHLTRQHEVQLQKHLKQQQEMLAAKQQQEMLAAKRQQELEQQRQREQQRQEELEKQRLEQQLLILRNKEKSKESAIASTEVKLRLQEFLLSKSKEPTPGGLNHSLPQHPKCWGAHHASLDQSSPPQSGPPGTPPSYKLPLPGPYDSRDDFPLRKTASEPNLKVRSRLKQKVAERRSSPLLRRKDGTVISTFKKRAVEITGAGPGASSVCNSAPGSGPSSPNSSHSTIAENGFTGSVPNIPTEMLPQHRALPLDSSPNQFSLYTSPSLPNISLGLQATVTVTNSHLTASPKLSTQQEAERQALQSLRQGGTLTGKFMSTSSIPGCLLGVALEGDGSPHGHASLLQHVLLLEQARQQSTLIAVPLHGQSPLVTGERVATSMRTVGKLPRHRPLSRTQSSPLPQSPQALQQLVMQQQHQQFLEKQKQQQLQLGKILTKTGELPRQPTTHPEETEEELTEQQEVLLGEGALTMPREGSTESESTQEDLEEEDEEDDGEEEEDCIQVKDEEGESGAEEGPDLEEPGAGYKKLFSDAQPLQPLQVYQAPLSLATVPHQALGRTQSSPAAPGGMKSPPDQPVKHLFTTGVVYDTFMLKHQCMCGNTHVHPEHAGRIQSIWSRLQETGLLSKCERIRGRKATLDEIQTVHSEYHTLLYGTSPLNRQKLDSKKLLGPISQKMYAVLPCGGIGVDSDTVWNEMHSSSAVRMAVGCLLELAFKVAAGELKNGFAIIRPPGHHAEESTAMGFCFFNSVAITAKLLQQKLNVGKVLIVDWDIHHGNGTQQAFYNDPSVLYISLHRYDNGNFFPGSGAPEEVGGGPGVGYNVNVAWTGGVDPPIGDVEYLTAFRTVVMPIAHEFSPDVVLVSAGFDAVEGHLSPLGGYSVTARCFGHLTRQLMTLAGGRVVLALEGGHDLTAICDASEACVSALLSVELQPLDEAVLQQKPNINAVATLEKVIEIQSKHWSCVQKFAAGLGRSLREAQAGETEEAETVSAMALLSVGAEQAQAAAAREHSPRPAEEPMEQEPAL

MGC-803 [22] = assay: Induction of mitochondrial membrane potential loss in human MGC803 cells assessed as FL2 red fluorescence level at 5 uM incubated for 48 hrs by JC1 staining based flow cytometry (reference value: 5.47%); assay type: functional
MGC-803 [23] = assay: Potency index, ratio of IC50 for SAHA to IC50 for test compound for antiproliferative activity against human MGC803 cells incubated for 72 hrs by MTT assay; assay type: functional
MGC-803 [24] = assay: Induction of apoptosis in human MGC803 cells assessed as necrotic cells level at 2.5 uM incubated for 24 hrs by Annexin-V-FITC/propidium iodide staining based flow cytometry (reference value: 0.596%); assay type: functional
MGC-803 [25] = assay: Induction of apoptosis in human MGC803 cells assessed as necrotic cells level at 7.5 uM incubated for 48 hrs by Annexin-V-FITC/propidium iodide staining based flow cytometry (reference value: 0.242%); assay type: functional
[26] = molecular target: T3, Lysine-specific histone demethylase 1A; remark: listed apart in the source
Description: Inhibition of recombinant LSD1 (157 to 852 amino acids) (unknown origin) expressed in Escherichia coli BL21(DE) using H3K4me2 substrate by amplex red and horseradish peroxidase based fluorescence assay

MGC-803 [27] = assay: Induction of mitochondrial membrane potential loss in human MGC803 cells assessed as FL2 red fluorescence level at 2.5 uM incubated for 48 hrs by JC1 staining based flow cytometry (reference value: 5.47%); assay type: functional
Histone deacetylase 1 = Histone deacetylase 1 (Homo sapiens, UniProt Q13547); assay: Inhibition of C-terminal His-tagged and C-terminal FLAG-tagged human HDAC1 expressed in baculovirus expression system using Ac-peptide substrate incubated for 15 mins by fluorescence based assay
Chain of Histone deacetylase 1 (Q13547 whole entry): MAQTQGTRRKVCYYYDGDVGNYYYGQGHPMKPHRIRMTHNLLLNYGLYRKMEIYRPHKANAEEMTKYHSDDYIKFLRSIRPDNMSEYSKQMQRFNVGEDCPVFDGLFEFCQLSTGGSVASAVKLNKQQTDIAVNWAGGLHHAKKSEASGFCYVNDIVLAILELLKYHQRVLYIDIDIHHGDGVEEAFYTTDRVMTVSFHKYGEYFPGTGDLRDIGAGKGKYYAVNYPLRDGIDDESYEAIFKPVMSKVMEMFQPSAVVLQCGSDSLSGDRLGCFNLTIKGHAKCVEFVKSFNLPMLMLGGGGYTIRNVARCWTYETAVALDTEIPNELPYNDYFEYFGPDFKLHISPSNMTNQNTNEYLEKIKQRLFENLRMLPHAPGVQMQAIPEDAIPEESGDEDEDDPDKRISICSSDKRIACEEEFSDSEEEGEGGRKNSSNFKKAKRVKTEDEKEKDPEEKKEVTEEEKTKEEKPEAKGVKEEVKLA

Histone deacetylase 2 = Histone deacetylase 2 (Homo sapiens, UniProt Q92769)
Chain of Histone deacetylase 2 (Q92769 whole entry): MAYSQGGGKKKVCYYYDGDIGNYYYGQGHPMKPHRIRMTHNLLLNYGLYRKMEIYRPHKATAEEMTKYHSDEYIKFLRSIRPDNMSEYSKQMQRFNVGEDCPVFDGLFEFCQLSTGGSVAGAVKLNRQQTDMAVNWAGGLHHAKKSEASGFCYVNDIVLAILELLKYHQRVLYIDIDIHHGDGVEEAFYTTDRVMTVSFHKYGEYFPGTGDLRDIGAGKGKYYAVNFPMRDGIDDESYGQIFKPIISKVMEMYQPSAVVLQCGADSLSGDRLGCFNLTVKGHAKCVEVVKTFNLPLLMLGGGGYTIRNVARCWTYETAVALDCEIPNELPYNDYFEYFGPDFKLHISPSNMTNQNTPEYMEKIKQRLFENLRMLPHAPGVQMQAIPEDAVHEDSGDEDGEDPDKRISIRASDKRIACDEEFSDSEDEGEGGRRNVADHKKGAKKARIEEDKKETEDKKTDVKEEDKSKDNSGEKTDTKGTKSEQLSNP
Description: Inhibition of C-terminal His-tagged full length human HDAC2 expressed in baculovirus expression system using Ac-peptide substrate incubated for 15 mins by fluorescence based assay

MGC-803 [28] = assay: Induction of apoptosis in human MGC803 cells assessed as early apoptotic cells level at 7.5 uM incubated for 24 hrs by Annexin-V-FITC/propidium iodide staining based flow cytometry (reference value: 4.37%); assay type: functional
MGC-803 [29] = assay: Induction of apoptosis in human MGC803 cells assessed as viable cells level at 5 uM incubated for 48 hrs by Annexin-V-FITC/propidium iodide staining based flow cytometry (reference value: 92.3%); assay type: functional
SW-620 = assay: cells; assay type: functional, cell-based; details: Homo sapiens, SW-620, 72 h
Description: Antiproliferative activity against human SW620 cells incubated for 72 hrs by MTT assay

MGC-803 [30] = assay: Induction of apoptosis in human MGC803 cells assessed as early apoptotic cells level at 2.5 uM incubated for 24 hrs by Annexin-V-FITC/propidium iodide staining based flow cytometry (reference value: 4.37%); assay type: functional
MGC-803 [31] = assay: Induction of apoptosis in human MGC803 cells assessed as early apoptotic cells level at 7.5 uM incubated for 48 hrs by Annexin-V-FITC/propidium iodide staining based flow cytometry (reference value: 7.35%); assay type: functional
MGC-803 [32] = assay: Induction of apoptosis in human MGC803 cells assessed as late apoptotic cells level at 2.5 uM incubated for 24 hrs by Annexin-V-FITC/propidium iodide staining based flow cytometry (reference value: 0.447%); assay type: functional
MGC-803 [33] = assay: Induction of apoptosis in human MGC803 cells assessed as necrotic cells level at 7.5 uM incubated for 24 hrs by Annexin-V-FITC/propidium iodide staining based flow cytometry (reference value: 0.596%); assay type: functional
PC-3 = assay: cells; assay type: functional, cell-based; details: Homo sapiens, PC-3, 72 h
Description: Antiproliferative activity against human PC3 cells incubated for 72 hrs by MTT assay

MGC-803 [34] = assay: Induction of apoptosis in human MGC803 cells assessed as early apoptotic cells level at 5 uM incubated for 24 hrs by Annexin-V-FITC/propidium iodide staining based flow cytometry (reference value: 4.37%); assay type: functional
MGC-803 [35] = assay: Induction of apoptosis in human MGC803 cells assessed as late apoptotic cells level at 5 uM incubated for 24 hrs by Annexin-V-FITC/propidium iodide staining based flow cytometry (reference value: 0.447%); assay type: functional
MGC-803 [36] = assay: Induction of apoptosis in human MGC803 cells assessed as viable cells level at 2.5 uM incubated for 24 hrs by Annexin-V-FITC/propidium iodide staining based flow cytometry (reference value: 94.6%); assay type: functional
MGC-803 [37] = assay: Induction of apoptosis in human MGC803 cells assessed as viable cells level at 5 uM incubated for 24 hrs by Annexin-V-FITC/propidium iodide staining based flow cytometry (reference value: 94.6%); assay type: functional
[38] = molecular target: T3, Lysine-specific histone demethylase 1A; assay: Inhibition of LSD1 in human MGC803 cells assessed as increase in cellular H3K4me3 levels at 1 uM incubated for 24 hrs by Western blot; assay type: cell-based
MGC-803 [39] = assay: Induction of apoptosis in human MGC803 cells assessed as late apoptotic cells level at 7.5 uM incubated for 24 hrs by Annexin-V-FITC/propidium iodide staining based flow cytometry (reference value: 0.447%); assay type: functional

IC50 [1]: > 100 µM
IC50 [2]: > 100 µM
SMILES: O=C(CCCCCCC(=O)Nc1ccccc1)NO [VORINOSTAT]

IC50 (MCF7): 4.28 µM
IC50 (MGC-803 [6]): 0.81 µM
IC50 [1]: 21.1 µM
inhibition [10]: Dose-dependent effect
inhibition [16]: inactive
inhibition [17]: Dose-dependent effect
inhibition [18]: Dose-dependent effect
IC50 (A549): 1.34 µM
Ratio IC50 [21]: 25
IC50 (Histone deacetylase 5; read-out: IC50): 16.8 µM
IC50 [26]: 1.2 µM
IC50 (Histone deacetylase 1): 0.015 µM
IC50 (Histone deacetylase 2): 0.023 µM
IC50 (SW-620): 2.35 µM
IC50 (PC-3): 5.48 µM
inhibition [38]: inactive
IC50 [2]: 87.1 µM
SMILES: O=C(CCCCCCNC(=O)c1ccc(CNC2(c3ccccc3)CC2)cc1)NO
Activity (MGC-803 [3]): Dose-dependent effect
Activity (MGC-803 [4]): 25.4%
Activity (MGC-803 [5]): 37.2%
Activity (MGC-803 [7]): 2.2%
Activity (MGC-803 [8]): 7.42%
Activity (MGC-803 [9]): 43.9%
Activity (MGC-803 [11]): 49.6%
Activity (MGC-803 [12]): 54.7%
Activity (MGC-803 [13]): 42%
Activity (MGC-803 [14]): 2.21%
Activity (MGC-803 [15]): 35.2%
Activity (MGC-803 [19]): 94%
Activity (MGC-803 [20]): 2.82%
Activity (MGC-803 [22]): 83.5%
Ratio IC50 (MGC-803 [23]): 10
Activity (MGC-803 [24]): 1.22%
Activity (MGC-803 [25]): 1.61%
Activity (MGC-803 [27]): 46.6%
Activity (MGC-803 [28]): 31.7%
Activity (MGC-803 [29]): 11.9%
Activity (MGC-803 [30]): 22.5%
Activity (MGC-803 [31]): 41.4%
Activity (MGC-803 [32]): 4.27%
Activity (MGC-803 [33]): 2.71%
Activity (MGC-803 [34]): 26.2%
Activity (MGC-803 [35]): 11%
Activity (MGC-803 [36]): 72%
Activity (MGC-803 [37]): 60%
Activity (MGC-803 [39]): 10.9%

IC50 (MCF7): 17.3 µM
IC50 (MGC-803 [6]): 12 µM
IC50 [1]: 45.8 µM
IC50 (A549): 6.75 µM
IC50 (Histone deacetylase 5): Not Active
IC50 [26]: 4.09 µM
IC50 (Histone deacetylase 1): 1.44 µM
IC50 (Histone deacetylase 2): 3.1 µM
IC50 (SW-620): 23.3 µM
IC50 (PC-3): 19.8 µM
IC50 [2]: > 100 µM
SMILES: O=C(NO)c1ccc(CNC2CC2c2ccccc2)cc1 (centres undefined)

Reference: ChEMBL document CHEMBL4130471, “Design and synthesis of tranylcypromine derivatives as novel LSD1/HDACs dual inhibitors for cancer treatment” (Eur J Med Chem, 2017)
